Where two headings read alike, the source gives them in different places.
Test: Sink condition: solubility of API in DI water and SGF
Assay type: physicochemical
Settings: for solubility: thermodynamic from solid, read-out: Final Concentration
Procedure: • 1. 5 mg of API was placed into a glass vial. • 2. Added 0.2 mL of diluent (DI water and SGF) into the vial, then sonicate and vortex to dissolve the API. • 3. If the solution is not clear after 5 minutes, add additional 0.2 mL of diluent into the vial, then sonicate and vortex to dissolve the API. • 4. Repeat step 4 till all API is dissolved. • 5. Calculate the final concentration of API and the maximum dissolvable dose used in dissolution test.

With `CC(C)c1ccc(N(C)c2ccc3c(c2)OCC[C@H]3CNc2cnccc2C(=O)O)cc1` [Compound 1, 3-({[(4R)-7-{methyl[4-(propan-2-yl)phenyl]amino}-3,4-dihydro-2H-1-benzopyran-4-yl]methyl}amino)pyridine-4-carboxylic acid] the “Maximum dissolvable dose used in dissolution test” value (diluent DI water) was 717 mg, the “Maximum dissolvable dose used in dissolution test” value (diluent SGF) was 617 mg and the solubility (simulated gastric fluid, diluent SGF) was ≥ 3700 µg/mL. For the same compound, the solubility (diluent DI water) was ≥ 4300 µg/mL.

— US20250134874A1, “PHARMACEUTICAL FORMULATIONS COMPRISING 3-({[(4R)-7-{METHYL[4-(PROPAN-2-YL)PHENYL]AMINO}-3,4-DIHYDRO-2H-1-BENZOPYRAN-4-YL]METHYL}AMINO)PYRIDINE-4-CARBOXYLIC ACID” (TACHYON THERAPEUTICS, INC., priority 2021, published 2025)
